Here are results for 26 molecules from PubChem BioAssay (NCI).

Values joined by “and” are separate entries in the source; they are usually repeats but may differ in a detail not shown here. Identical values can stand only once.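 Five concentrations, 48 hours, 96-well plates. At the GI50, growth is halved. Definition used: TGI = concentration required for complete inhibition of growth.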

Experiment in all cases: inhibition of tumour cell growth, NCI panel, 48 h
Test [1] deals with HCT-15 colon.
Test [2] relates to HOP-92 NSCLC.
Test [3] concerns LOX IMVI melanoma.
Test [4] relates to MOLT-4 leukemia.
For test [5], the system named is OVCAR-4 ovarian.
In test [6] the test system is TK-10 renal.
Test [7] has as its system UACC-257 melanoma.
Test [8] deals with UO-31 renal.
For test [9], the system named is DU-145 prostate.
Test [10] deals with MDA-MB-231 breast.

For the molecule `COc1c(O)c2c3c(cc(C)cc3c1C(C)C)OC2`, the TGI in test [1], in test [2], in [3], in test [4], in [5] and in [6] was above 100 µM each time. Moreover, the TGI in [7] and in [8] was above 100 µM in each case.
With `O=C1CCCCC1S(=O)(=O)c1ccccc1` (configuration not stated), the TGI in test [1], in test [2], in [3], in [4], in [5] and in test [6] was above 100 µM each time. For the same molecule, the TGI in test [7] and in test [8] was above 100 µM in each case.
For the molecule `C=Cc1cncc(C#N)c1CCc1c(C#N)cncc1C=C`, the GI50 in [1], in [4], in [6], in test [7] and in [8] was above 100 µM each time. Moreover, the TGI in [1] is above 100 µM; in test [2] it was above 10 µM; in test [3], above 100 µM; in test [4], above 100 µM; in [5], above 10 µM; in test [6] it was above 100 µM. The TGI in test [7] and in [8] was above 100 µM throughout.
For `COc1cc2ccnc3c2c(c1OC)-c1coc(SC)c1-3`, the TGI in [1], in [2], in test [3], in test [4], in test [5] and in test [6] was above 100 µM in each case. The TGI in [7] and in test [8] was above 100 µM in each case.
On to `CC1CCC/C1=C(/I)C(=O)c1ccccc1` (configuration not stated), for which the TGI in test [9] is above 100 µM; in test [1], above 100 µM; in [3], 92.7 µM; in test [10] it was above 100 µM; in test [4], 45.2 µM; in [5], above 100 µM. For the same molecule, the TGI in test [6], in [7] and in [8] was above 100 µM throughout.
On to `O=C1CCCCCCCCCCC1CN1CCCC1` (configuration not stated), for which the TGI in [9] was above 100 µM; in test [1], above 100 µM; in test [3] it was 70.7 µM; in test [10], above 100 µM; in test [4], above 100 µM; in test [6] it was above 100 µM. The TGI in test [7] was 49.3 µM; in test [8], above 100 µM.
Take `CCOC(=O)CC[C@H](NC(=O)c1nc[nH]c1[N+](=O)[O-])C(=O)OCC`: the TGI in [1], in test [2], in test [3], in test [4], in test [5] and in test [6] was above 100 µM in each case. Further, the TGI in test [7] and in test [8] was above 100 µM throughout.
Take `Nc1ncnc2c1N=C(c1ccc3c(c1)OCO3)CC(c1ccc([N+](=O)[O-])cc1)N2` (configuration not stated): the GI50 is 46.3 µM in test [9]; 9.55 µM in test [1]; 22.9 µM in test [3]; 38.9 µM in test [10]; 23.7 µM in [4]; above 100 µM in test [5]. Further, the figures for the GI50 in test [6], in test [7] and in test [8] were 80.9 µM, above 100 µM and 18.1 µM, respectively. The TGI in test [9], in [1], in test [3], in [10], in test [4] and in test [5] was above 100 µM each time. Besides, the TGI in test [6], in test [7] and in [8] was above 100 µM each time.
For `O=C1OCC2=C1C(c1cccc(Cl)c1)c1cc3c(cc1N2CCO)OCCO3` (configuration not stated), the GI50 in test [9] was 0.152 µM; in [1], 0.073 µM; in test [3], 0.0689 µM; in test [10], 0.334 µM; in test [4], 0.348 µM; in test [5] it was 0.118 µM. For the same molecule, the GI50 was 0.12 µM in test [6], 0.0364 µM in test [7] and 0.0736 µM in test [8]. In addition, the TGI was 1.31 µM in [9]; above 100 µM in test [1]; 17.9 µM in test [3]; 4.26 µM in test [10]; above 100 µM in [4]; above 100 µM in test [5]. Also, the values for the TGI in test [6], in test [7] and in [8] were 37.3 µM, 28.2 µM and above 69.4 µM, respectively.
Consider `C=CCN=C(N/N=C/c1ccc([N+](=O)[O-])o1)NS(=O)(=O)c1cc(C(=O)Nc2ccc(Cl)cc2)c(Cl)cc1SC`, for which the GI50 in test [9] was 2.72 µM; in [1], 2.97 µM; in [2], 4.94 µM; in test [3], above 64.1 µM; in [6] it was above 90.8 µM; in test [7] it was 4.28 µM. In addition, the GI50 in test [8] was above 49.9 µM. The TGI was above 35.2 µM in test [9]; 13.5 µM in [1]; above 100 µM in test [2]; above 100 µM in test [3]; above 39.5 µM in test [4]; above 34.1 µM in test [5]. Moreover, the TGI in test [6] is above 100 µM; in test [7], above 59.9 µM; in [8], above 100 µM.
Regarding `COc1cc(OC)c2nc(C)c3c(c2c1)SCC3`, the TGI in [9] was above 100 µM; in [1], above 100 µM; in test [3], above 100 µM; in test [10], 44.7 µM; in [4], above 100 µM; in [5] it was 38.5 µM. In addition, the TGI in test [6] was found to be 38.5 µM; in test [7], 78.3 µM; in test [8], 48.8 µM.
For the molecule `CC1(C)CC(O)C(C)(C)[C@@H](O)C1` (some centres not stated), the TGI in test [9], in test [1], in [3], in test [10], in test [4] and in test [5] was above 100 µM each time. Besides, the TGI in test [6], in test [7] and in [8] was above 100 µM throughout.
Consider `CCCCOC(=O)N1CCN(/[N+]([O-])=N/Oc2ccc([N+](=O)[O-])cc2[N+](=O)[O-])CC1`, for which the GI50 was 3.35 µM in test [9]; 3.99 µM in test [1]; 2.27 µM in [3]; 2.31 µM in [10]; above 100 µM in [4]; 10 µM in [6]. In addition, the GI50 in test [7] was 13.4 µM; in test [8] it was 3.84 µM. Besides, the TGI in test [9] is 12 µM; in test [1] it was 21.4 µM; in test [3] it was 5.06 µM; in [10] it was 5.63 µM; in [4] it was above 100 µM; in [6] it was 21.8 µM. The TGI in test [7] was 29 µM; in test [8], 41.3 µM.
With `CC[C@@]1(O)C(=O)OCc2c1cc1n(c2=O)Cc2cc3cc4c(cc3nc2-1)OCO4`, the TGI in test [9] is 0.00572 µM; in [1], above 58.9 µM; in [2], 0.166 µM and 0.051 µM; in [3] it was 0.109 µM and 0.0506 µM; in test [10], above 100 µM; in test [4], 0.00137 µM. In addition, the TGI in test [6] is 2.79 µM and 17.3 µM; in [7] it was 0.345 µM and 0.259 µM; in test [8] it was 0.0251 µM and < 0.015 µM. Besides, the GI50 in [3] is below 0.001 µM; in test [6], 0.111 µM.
For `NC(=O)CN(CC(N)=O)C(N)=O`, the TGI in test [1], in test [2], in test [3], in test [4], in test [5] and in test [6] was above 100 µM throughout. The TGI in test [7] and in [8] was above 100 µM each time.
As for `CCOC(=O)CCC(NC(=O)OCc1ccccc1)C(=O)NC(CCC(=O)OCC)C(=O)NC(CCC(=O)OCC)C(=O)NC(CCC(=O)OCC)C(=O)NC(CCC(=O)OCC)C(=O)NC(CCC(=O)OCC)C(=O)NC(CCC(=O)OCC)C(=O)OCC` (configuration not stated), the TGI in [9], in test [1], in test [3], in test [10], in test [4] and in test [5] was above 100 µM in each case. The TGI in [6], in test [7] and in test [8] was above 100 µM each time.
Consider `COc1ccc2c(CN3CCCC[C@H]3C(=O)O)cc3cc4c(cc3c2c1)OCO4`, for which the GI50 was 5.72 µM in test [9]; 1.4 µM in [1]; 1.86 µM in [2]; 1.37 µM in [3]; 0.799 µM in [10]; 0.278 µM in test [4]. In addition, the GI50 in test [6] is 5.47 µM. Besides, the TGI stood at 24.7 µM in test [9]; 12.7 µM in test [1]; 5.19 µM in [2]; 3.15 µM in [3]; 3.59 µM in test [10]; 2.3 µM in [4]. Also, the TGI in [6] came to 60.2 µM.
With `C[C@@]12CCC(=O)c3coc(c31)C(=O)c1cc3c(cc12)C(=O)C=CC3=O`, the GI50 in test [1], in [2], in test [3], in test [4], in [5] and in test [6] was above 1 µM throughout. Also, the GI50 in test [7] and in test [8] was above 1 µM in each case. The TGI in test [1] is > 1 µM and 32.7 µM; in [2] it was > 1 µM and 19.6 µM; in [3], > 1 µM and 20.9 µM; in test [4], above 100 µM; in test [5], > 1 µM and 32.1 µM; in test [6], above 61 µM. Besides, the TGI in test [7] was > 1 µM and 23.8 µM; in test [8], > 1 µM and 30.9 µM.
With `CCCCCCCCCCCCCCCC(=O)OCC1OC(n2cc(F)c(=O)[nH]c2=O)C(N)C(O)C1O` (configuration not stated), the TGI in test [2] is 38.9 µM; in [3] it was 33.1 µM; in test [4], 40.7 µM; in [5], 31.2 µM; in [6] it was 46.5 µM; in [7], 40.7 µM. The molecule further came in with a TGI in test [8] of 30.8 µM.
For `CC1=NN(C(=O)c2ccccc2O)C(=O)/C1=C/c1ccc(O)cc1`, the TGI in test [9] was above 100 µM; in [1] it was above 100 µM; in test [3] it was above 82.1 µM; in [10] it was above 100 µM; in test [4], above 100 µM; in test [5], above 100 µM. Further, the TGI in test [6] and in [7] was above 100 µM in each case.
With `O=[N+]([O-])c1ccc(-n2nnc(C3=NCCN3)c2-c2ccccc2)cc1`, the TGI in test [1], in test [2], in test [3], in [4], in test [5] and in test [6] was above 100 µM in each case. Further, the TGI in test [7] and in [8] was above 100 µM in each case.
Take `CC(=O)[CH-]C(=O)c1ccccc1.CC(=O)[CH-]C(=O)c1ccccc1.CC[O-].CC[O-].[Hf+4]`: the GI50 in [1] was above 100 µM; in [2], 36.8 µM; in test [3], above 100 µM; in test [4], above 100 µM; in [5] it was above 100 µM; in [8], above 100 µM. In addition, the TGI in test [1], in test [2], in test [3], in test [4], in [5] and in [8] was above 100 µM in each case.
For the molecule `O=S(=O)(/C=C/c1ccc(F)cc1)Cc1ccc(CS(=O)(=O)/C=C/c2ccc(F)cc2)cc1`, the TGI in [1], in test [2], in [3], in [4], in test [5] and in test [6] was above 100 µM throughout. Further, the TGI in test [7] and in test [8] was above 100 µM each time.
`COC(C(=O)NN)c1ccccc1` (configuration not stated): the TGI in test [9], in test [1], in test [2], in [4], in test [6] and in test [7] was above 100 µM each time. For the same molecule, in test [8], the TGI was above 100 µM.
`COc1ccc(/C=C/c2cc(OC)c(OC)c(OC)c2)cc1`: the TGI in test [1] was above 93.5 µM; in test [2], above 100 µM; in [3] it was above 100 µM; in [4] it was above 100 µM; in [5] it was above 100 µM; in [6] it was above 100 µM. The TGI in test [7] and in [8] was above 100 µM throughout.
`CSc1nnc(CCC(=O)Nc2c(C)cccc2C)o1`: the TGI in [1], in test [2], in test [3], in test [4], in test [5] and in test [6] was above 100 µM in each case. For the same molecule, the TGI in [7] and in [8] was above 100 µM each time.
